Assay results: US20040038875A1, “Alpha 7nicotinic receptor screening assays” (priority 2002, published 2004)

Columns and labels:
[1] = biological target: T1, homomeric alpha 7 nicotinic receptors (Homo sapiens, UniProt P36544); conditions: cited from earlier work
[2] = biological target: T2, human alpha 7 nicotinic receptor (Homo sapiens, UniProt P36544); assay: ACh-induced currents / Ca2+ flux in Xenopus oocytes expressing human alpha 7 nicotinic receptors (two microelectrode voltage clamp, intracellular recordings); type: cell-based
T2 construct: expressed in transfected cells; host or cells: Xenopus oocytes injected with in vitro transcribed alpha 7 subunit mRNA
T2 sequence (P36544 23-502): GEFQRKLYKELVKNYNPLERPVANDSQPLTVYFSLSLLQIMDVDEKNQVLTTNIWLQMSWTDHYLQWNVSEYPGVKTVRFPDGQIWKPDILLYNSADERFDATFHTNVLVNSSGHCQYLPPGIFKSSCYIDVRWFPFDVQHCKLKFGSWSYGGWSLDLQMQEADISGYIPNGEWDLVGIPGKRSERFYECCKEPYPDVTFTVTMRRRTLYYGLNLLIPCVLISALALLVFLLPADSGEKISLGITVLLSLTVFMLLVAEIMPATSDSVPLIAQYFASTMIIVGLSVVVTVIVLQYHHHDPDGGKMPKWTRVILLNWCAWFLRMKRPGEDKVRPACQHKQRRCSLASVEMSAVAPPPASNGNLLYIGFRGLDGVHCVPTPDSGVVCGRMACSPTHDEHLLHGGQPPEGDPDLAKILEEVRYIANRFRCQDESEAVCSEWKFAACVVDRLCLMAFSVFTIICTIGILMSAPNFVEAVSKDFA

hippocampal neurons = assay: Ca2+ flux into hippocampal neurons; type: cell-based
From the text: This is of particular interest in relation to Alzheimer's Disease since the hippocampus is the major site of degeneration neuropathology associated with that disease.

[3] = system: neurons of the substantia nigra; conditions: cited from earlier work
[4] = biological target: T3, neuronal chick homomeric alpha 7 nicotinic receptors (Gallus gallus, UniProt P22770); conditions: in the μM range, chick receptor in oocytes; cited from earlier work
T3 construct: host or cells: oocytes
T3 sequence (P22770 23-502 limits assumed): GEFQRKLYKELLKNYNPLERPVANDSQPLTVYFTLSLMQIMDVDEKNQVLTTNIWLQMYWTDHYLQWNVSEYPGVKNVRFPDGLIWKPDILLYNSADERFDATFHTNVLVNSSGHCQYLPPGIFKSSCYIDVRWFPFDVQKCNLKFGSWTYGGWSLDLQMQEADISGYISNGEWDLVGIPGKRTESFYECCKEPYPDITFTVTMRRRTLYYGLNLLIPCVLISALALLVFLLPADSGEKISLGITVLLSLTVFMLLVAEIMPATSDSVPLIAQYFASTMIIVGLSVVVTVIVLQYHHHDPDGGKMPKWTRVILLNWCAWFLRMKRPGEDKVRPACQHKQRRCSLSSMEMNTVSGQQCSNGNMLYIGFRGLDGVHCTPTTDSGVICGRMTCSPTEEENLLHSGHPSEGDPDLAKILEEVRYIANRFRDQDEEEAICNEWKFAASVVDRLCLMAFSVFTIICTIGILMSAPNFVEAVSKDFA

[5] = biological target: T1, homomeric alpha 7 nicotinic receptors; set-up: host or cells: oocytes; conditions: in the μM range, human receptor in oocytes; cited from earlier work

T1 sequence (P36544 23-502): as the sequence (P36544 23-502) above

COc1ccc(/C=C2\CCCN=C2c2cccnc2)c(OC)c1 [GTS-21, 2,4-dimethoxybenzylidene anabaseine]
functional selectivity compared to α4β2 nicotinic receptors [1]: high functional selectivity

AEFHRWSSYMVHWK [Synaptica Peptide]
reversibility of effects [2]: reversible but recovery was slow
effect on ACh-induced Ca2+ flux ([2]; 0.001 μM applied with ACh, no pre-incubation): increased Ca^2+ flux
Ca2+ current, intracellular recordings ([2]; 10 μM applied without ACh): no Ca^2+ current was observed
current, intracellular recordings ([2]; 10 μM followed after 30 seconds by 100 μM ACh): reduced current compared to that observed with ACh alone
effect on ACh-evoked response at high dose ([2]; high dose, range 10^−12 to 5×10^−6): enhancement of ACh-evoked response observed with low doses of the peptide was reversed
effect on ACh-mediated responses ([2]; peptide applied, after 2 minutes co-application of peptide and ACh): inhibition of ACh-mediated responses
Ca2+ flux into hippocampal neurons (hippocampal neurons): enhance Ca^2+ flux into hippocampal neurons which eventually switches off calcium channels
calcium potentials induced by NMDA or direct depolarisation ([3]; initial effect): initially enhances calcium potentials
calcium entry ([3]; sustained application for a few minutes): reduction in calcium entry

Aβ1-42: Aβ1-42 fragment of human APP associated with Alzheimer's Disease [reference compound]
modulation of calcium influx [3]: not observed

ivermectin
acetyl choline-evoked currents [4]: strongly enhance
acetyl choline-evoked currents [5]: strongly enhance
